# Test results taken from patent US20050136015A1, “Topical use of halosalicylic acid derivatives” (priority 2003, published 2005).
# How the values were obtained:
# [1] = test system: Propionibacterium acnes; assay: Zone of Inhibition Test; type: cell-based; conditions: for Diameter of Zone of Inhibition: P. acnes, 1000 μl, isopropyl palmitate solvent
# [2] = test system: Staphylococcus epidermidis; assay: Zone of Inhibition Test; type: cell-based; conditions: S. epidermidis, 1000 μl, isopropyl palmitate solvent
# [3] = test system: Staphylococcus aureus; assay: Zone of Inhibition Test; type: cell-based; conditions: S. aureus, 1000 μl, isopropyl palmitate solvent
# [4] = test system: Escherichia coli; assay: Zone of Inhibition Test; type: cell-based; conditions: E. coli, 1000 μl, isopropyl palmitate solvent
# [5] = test system: Pseudomonas aeruginosa; assay: Zone of Inhibition Test; type: cell-based; conditions: P. aeruginosa, 1000 μl, isopropyl palmitate solvent
# [6] = test system: Candida albicans; assay: Zone of Inhibition Test; type: cell-based; conditions: C. albicans, 1000 μl, isopropyl palmitate solvent
# [7] = test system: Aspergillus niger; assay: Zone of Inhibition Test; type: cell-based; conditions: A. niger, 1000 μl, isopropyl palmitate solvent
# [8] = test system: skin surface; assay: Exfoliation (desquamation) activity, D-SQUAME skin surface sampling discs; type: in vivo; conditions: for D-SQUAME Score: scoring scale 0 to 5
# From the text: D-SQUAME skin surface sampling Discs (CuDerm Corporation) were employed. The disc was applied to a clean, dry skin surface and pressed firmly for a few seconds using the thumb or fingertips. The disc was then transferred to a black square on the storage card. The disc was viewed at an angle with strong light and compared with 5 reference patterns provided by CuDerm Corporation. Very dry skin produces a heavy amount of scaling similar to pattern 5. Normal skin produces a few areas of small clumps of cells or a fine even single layer of cells. The scoring scale employed was as follows: [table] […] The vehicle was tested, as a control. The vehicle (ANEW All-In-One SPF-15 Self-Adjusting Perfecting Creme base without the glycolic acid) employed was the same in all cases, only the test compound(s) differed.
# [9] = Skin irritation (PII) of test formulation; type: in vivo
# [10] = test system: all of the test microorganisms; assay: MLC test, summary over all test microorganisms; type: cell-based; conditions: against all of the test microorganisms of Table 1
# [11] = test system: Salmonella typhimarium; conditions: literature report; cited from earlier work
# [12] = 0.5% active in ANEW creme base vehicle
# [13] = 0.5% active in ANEW creme base vehicle without glycolic acid
structure (smiles),measurement,setting,value
"O=C(O)c1ccccc1O [Salicylic Acid, salicylic acid]",Diameter of Zone of Inhibition,[1]; 0.83%,0 Millimeters
same,Diameter of Zone of Inhibition,[1]; 1.66%,15.39 Millimeters
same,Diameter of Zone of Inhibition,[2]; 0.83%,4.5 Millimeters
same,Diameter of Zone of Inhibition,[2]; 1.66%,13.62 Millimeters
same,Diameter of Zone of Inhibition,[3]; 0.83%,0 Millimeters
same,Diameter of Zone of Inhibition,[3]; 1.66%,6.38 Millimeters
same,Diameter of Zone of Inhibition,[4]; 0.83%,0 Millimeters
same,Diameter of Zone of Inhibition,[4]; 1.66%,3.67 Millimeters
same,Diameter of Zone of Inhibition,[5]; 0.83%,0 Millimeters
same,Diameter of Zone of Inhibition,[5]; 1.66%,0 Millimeters
same,Diameter of Zone of Inhibition,[6]; 0.83%,4.6 Millimeters
same,Diameter of Zone of Inhibition,[6]; 1.66%,11.16 Millimeters
same,Diameter of Zone of Inhibition,[7]; 0.83%,0 Millimeters
same,Diameter of Zone of Inhibition,[7]; 1.66%,6.72 Millimeters
same,D-SQUAME Score,[8]; [12],1.97
same,D-SQUAME Score,[8]; 1% active in ANEW creme base vehicle,2.28
same,D-SQUAME Score,[8]; 2.% active in ANEW creme base vehicle,2.56
same,PII (skin irritation),[9]; [13],0.00
same,PII (skin irritation),[9]; 1% active in ANEW creme base vehicle without glycolic acid,0.00
same,PII (skin irritation),[9]; 2.% active in ANEW creme base vehicle without glycolic acid,0.00
same,Bacteriocidal activity (in words),[10],bacteriocidal against all of the test microorganisms
"O=C(O)c1cc(Cl)ccc1O [5-Chlorosalicylic Acid, 5-chlorosalicylic acid]",Diameter of Zone of Inhibition,[1]; 0.5%,4.87 Millimeters
same,Diameter of Zone of Inhibition,[1]; 1.0%,17.62 Millimeters
same,Activity against Propionibacterium acnes compared with salicylic acid,[1]; results of Tables 2 through 4,more active
same,Diameter of Zone of Inhibition,[2]; 0.5%,3.59 Millimeters
same,Diameter of Zone of Inhibition,[2]; 1.0%,13.15 Millimeters
same,Diameter of Zone of Inhibition,[3]; 0.5%,0 Millimeters
same,Diameter of Zone of Inhibition,[3]; 1.0%,3.04 Millimeters
same,Diameter of Zone of Inhibition,[4]; 0.5%,0 Millimeters
same,Diameter of Zone of Inhibition,[4]; 1.0%,0 Millimeters
same,Diameter of Zone of Inhibition,[5]; 0.5%,0 Millimeters
same,Diameter of Zone of Inhibition,[5]; 1.0%,0 Millimeters
same,Diameter of Zone of Inhibition,[6]; 0.5%,0 Millimeters
same,Diameter of Zone of Inhibition,[6]; 1.0%,2.96 Millimeters
same,Diameter of Zone of Inhibition,[7]; 0.5%,0 Millimeters
same,Diameter of Zone of Inhibition,[7]; 1.0%,3.38 Millimeters
same,D-SQUAME Score,[8]; [12],2.44
same,Exfoliation activity compared with 0.5% salicylic acid,"[8]; D-SQUAME, Table 5",significantly more exfoliating
same,Exfoliation activity compared with 1.0% salicylic acid,"[8]; D-SQUAME, Table 5",equivalent in exfoliation activity
same,Exfoliation activity compared with 2.0% salicylic acid,"[8]; D-SQUAME, Table 5",equivalent in exfoliation activity
same,Exfoliation activity compared with the base vehicle (containing no CLSA or SA),"[8]; D-SQUAME, Table 5",significantly more exfoliating
same,Exfoliation activity compared with the combination of 0.5% chlorosalicylic acid/0.5% salicylic acid,"[8]; D-SQUAME, Table 5",equivalent in exfoliation activity
same,PII (skin irritation),[9]; [13],0.00
same,Mutagenic activity,[11],non-mutagenic
